Experimental data published in patent publication US20230407243A1, “GENETIC PLATFORM TO INVESTIGATE THE FUNCTIONS OF BACTERIAL DRUG EFFLUX PUMPS” (priority 2022, published 2023).
Like-named read-outs stand apart in the source and are kept apart here.

Tests used:
Type in all cases: cell-based, Escherichia coli
[1] = test system: EKO-35 araC::acrBD408A; assay: MIC susceptibility profiling, efflux platform; details: for Fold change of MICs: EKO-35 araC::acrBD408A compared to EKO-35
Procedure: (§1) Single colonies were used to inoculate 3 mL of LB followed by incubation at 37° C. for 18 h with aeration at 220 rpm. The bacterial cells were harvested by centrifugation and resuspended in phosphate buffered saline (PBS) ([pH 7.4], 137 mM NaCl (Bioshop), 2.7 mM KCl (Bioshop), 10 mM Na2PO4 (Bioshop) and 1.8 mM K2PO4) to an OD600 nm˜1.0, followed by 1/2000 dilution into MHB II.
(§2) To a 384-well microtiter plate (Corning, untreated polystyrene), 500 nL of compound was dispensed, in duplicate, and serially titrated 2-fold using an Echo 550 acoustic liquid dispenser (Labcyte Inc.). […] As a solvent control, 500 nL of DMSO was applied to wells that contained no compound. Using a multichannel pipette, 50 μL of the prepared bacterial inoculum was applied to each well. To enable background correction post-incubation, the OD600 nm was measured (Biotek Synergy Neo2 microplate reader) prior to incubation. The plates were incubated at 37° C. with aeration at 900 rpm for 18 h. The plates were equilibrated to room temperature and the OD600 nm measured using a BioTek Synergy Neo2 microplate reader. Data was analyzed in both Prism (GraphPad, Version 9.2.0) and Microsoft Excel (Version 16.53). Raw data were input into Microsoft Excel and the pre-incubation OD600 nm measurements were subtracted from the post-incubation OD600 nm measurements. These corrected measurements were input into Prism 9 as a grouped analysis. […] All other MIC values were adjusted accordingly and visualized using the single-color scale grouped heat map function. Identification of compound chemical properties was achieved using DataWarrior (Version 5.5.0). Using PubChem, the SMILES chemical notation for each compound was obtained and compiled in Microsoft Excel. The resulting spreadsheet was input into DataWarrior and properties were calculated from the compound chemical structures.

[2] = test system: EKO-35 araC::acrB; assay: MIC susceptibility profiling, efflux platform; details: for Fold change of MICs: EKO-35 araC::acrB compared to EKO-35
Procedure: as §1, §2

[3] = test system: EKO-35 araC::acrD; assay: MIC susceptibility profiling, efflux platform; details: for Fold change of MICs: EKO-35 araC::acrD compared to EKO-35
Procedure: as §1, §2

[4] = test system: EKO-35 araC::acrEF; assay: MIC susceptibility profiling, efflux platform
Procedure: as §1, §2

[5] = test system: EKO-35 araC::emrAB; assay: MIC susceptibility profiling, efflux platform; details: for Fold change of MICs: EKO-35 araC::emrAB compared to EKO-35
Procedure: as §1, §2

[6] = test system: EKO-35 araC::emrKY; assay: MIC susceptibility profiling, efflux platform; details: for Fold change of MICs: EKO-35 araC::emrKY compared to EKO-35
Procedure: as §1, §2

[7] = test system: EKO-35 araC::macAB; assay: MIC susceptibility profiling, efflux platform; details: for Fold change of MICs: EKO-35 araC::macAB compared to EKO-35
Procedure: as §1, §2

[8] = test system: EKO-35 araC::mdtBC; assay: MIC susceptibility profiling, efflux platform; details: for Fold change of MICs: EKO-35 araC::mdtBC compared to EKO-35
Procedure: as §1, §2

[9] = test system: EKO-35 araC::mdtEF; assay: MIC susceptibility profiling, efflux platform
Procedure: as §1, §2

[10] = test system: EKO-35 araC::mexCD (MexCD from P. aeruginosa); assay: MIC susceptibility profiling, efflux platform; details: for Fold change of MICs: EKO-35 araC::mexCD compared to EKO-35
Procedure: as §1, §2

[11] = test system: wild-type (WT) K-12-Pore; assay: microbe, parasite or virus in culture; details: technical duplicate; for MIC: Escherichia coli
Procedure: (§3) For genomic integration of the pore, the fhuA ΔC/Δ4L gene and the adjacent gentamicin resistance cassette were amplified using a high-fidelity polymerase and the fhuA_40_Up/gImS_3680_Low primers (Table 4). Integration of the pore gene was performed as described above. The pore gene was introduced into the intergenic region between the glmS and pstS genes, with gene expression under the control of a constitutive promoter (Kearse, M. et al., 2012). Genomic integrations were verified using PCR (Primers: pstS_520_Up/glmS_3680_Low, Table 4). Successful integrations were transformed with pCP20 to remove the gentamicin resistance cassette as previously described. Activity of the pore was confirmed through susceptibility testing with the large antibiotic vancomycin prior to phenotypic profiling and further susceptibility testing.
as §1, §2

[12] = test system: ΔtolC-Pore; assay: microbe, parasite or virus in culture; details: for Minimum inhibitory concentration (MIC), Pore ΔtolC: Table 10, with pore
Procedure: as §3, §1, §2

[13] = test system: EKO-35-Pore; assay: MIC susceptibility profiling, porinated strain; details: for Fold changes of MICs: EKO-35-Pore compared to EKO-35-Pore (reference); for MIC: Escherichia coli
Procedure: as §3, §1, §2

[14] = test system: EKO-35 araC::acrB Pore; assay: MIC susceptibility profiling, porinated efflux platform; details: for Fold changes of MICs: EKO-35 araC::acr-B Pore compared to EKO-35-Pore
Procedure: as §3, §1, §2

[15] = test system: EKO-35 araC::acrBD408A Pore; assay: as above; details: for Fold changes of MICs: EKO-35 araC::acrBD408A Pore compared to EKO-35-Pore
Procedure: as §3, §1, §2

[16] = test system: EKO-35 araC::acrD Pore; assay: as above; details: for Fold changes of MICs: EKO-35 araC::acrD Pore compared to EKO-35-Pore
Procedure: as §3, §1, §2

[17] = test system: EKO-35 araC::acrEF Pore; assay: as above; details: for Fold changes of MICs: EKO-35 araC::acrEF Pore compared to EKO-35-Pore
Procedure: as §3, §1, §2

[18] = test system: EKO-35 araC::emrAB Pore; assay: as above; details: for Fold changes of MICs: EKO-35 araC::emrAB Pore compared to EKO-35-Pore
Procedure: as §3, §1, §2

[19] = Table 13B, non-porinated, technical duplicate
[20] = Table 13A, non-porinated, technical duplicate
[21] = Table 14A, porinated, technical duplicate

C[C@@H]1O[C@@H]1P(=O)(O)O [fosfomycin]
0.781 µg/mL: MIC ([13]; Table 10, with pore, technical duplicate, read-out: Minimum inhibitory concentration (MIC), Pore EKO-35) | MIC ([13]; Table 14A, porinated, technical duplicate, read-out: Minimum inhibitory concentration, EKO-35-Pore) | MIC ([14]; Escherichia coli, Table 14A, porinated, technical duplicate, read-out: Minimum inhibitory concentration, EKO-35 araC::acrB Pore) | MIC ([15]; Escherichia coli, EKO-35 araC::acrBD408A Pore, technical duplicate, read-out: Minimum inhibitory concentration) | MIC ([16]; Escherichia coli, Table 14A, porinated, technical duplicate, read-out: Minimum inhibitory concentration, EKO-35 araC::acrD Pore)
2 fold: Fold changes of MICs [17] | Fold changes of MICs [18]
1 fold: Fold change of MICs [1] | Fold change of MICs [2] | Fold change of MICs [3] | Fold change of MICs [5] | Fold change of MICs [6] | Fold change of MICs [7] | Fold change of MICs [8] | Fold change of MICs [10] | Fold changes of MICs [13] | Fold changes of MICs [14] | Fold changes of MICs [15] | Fold changes of MICs [16]
1.56 µg/mL: MIC ([2]; Escherichia coli, Table 13A, non-porinated, technical duplicate, read-out: Minimum Inhibitory Concentration, EKO-35 araC::acrB) | MIC ([3]; Escherichia coli, Table 13A, non-porinated, technical duplicate, read-out: Minimum Inhibitory Concentration, EKO-35 araC::acrD) | MIC ([4]; Escherichia coli, Table 13A, non-porinated, technical duplicate, read-out: Minimum Inhibitory Concentration, EKO-35 araC::acrEF) | MIC ([6]; Escherichia coli, Table 13B, non-porinated, technical duplicate, read-out: Minimum Inhibitory Concentration, EKO-35 araC::emrKY) | MIC ([8]; Escherichia coli, Table 13B, non-porinated, technical duplicate, read-out: Minimum Inhibitory Concentration, EKO-35 araC::mdtBC) | MIC ([9]; Escherichia coli, Table 13A, non-porinated, technical duplicate, read-out: Minimum Inhibitory Concentration, EKO-35 araC::mdtEF) | MIC ([10]; Table 13B, non-porinated, technical duplicate, read-out: Minimum Inhibitory Concentration, EKO-35 araC::mexCD) | MIC ([17]; Escherichia coli, Table 14A, porinated, technical duplicate, read-out: Minimum inhibitory concentration, EKO-35 araC::acrEF Pore) | MIC ([18]; Escherichia coli, EKO-35 araC::emrAB Pore, technical duplicate, read-out: Minimum inhibitory concentration)
3.125 µg/mL: Minimum inhibitory concentration (MIC), Pore ΔtolC ([12]; technical duplicate)
3.12 µg/mL: MIC ([11]; Table 10, with pore, read-out: Minimum inhibitory concentration (MIC), Pore K-12) | MIC ([11]; Table 14A, porinated, read-out: Minimum inhibitory concentration, K-12 (WT)-Pore) | MIC ([12]; Escherichia coli, 18 h, read-out: Minimum inhibitory concentration, ΔtolC-Pore)

Cn1cc(Br)c(-c2cccc(NC(=O)Nc3ccc(OC(F)(F)F)cc3)c2)n1 [compound 14]
320 µg/mL: Minimum Inhibitory Concentration, EKO-35 araC::acrBD408A [1, 19] | Minimum Inhibitory Concentration, EKO-35 araC::acrB [2, 20] | Minimum Inhibitory Concentration, EKO-35 araC::acrD [3, 20] | Minimum Inhibitory Concentration, EKO-35 araC::acrEF [4, 20] | Minimum Inhibitory Concentration, EKO-35 araC::emrAB [5, 19] | Minimum Inhibitory Concentration, EKO-35 araC::emrKY [6, 19] | Minimum Inhibitory Concentration, EKO-35 araC::macAB [7, 19] | Minimum Inhibitory Concentration, EKO-35 araC::mdtBC [8, 19] | Minimum Inhibitory Concentration, EKO-35 araC::mdtEF [9, 20] | Minimum Inhibitory Concentration, EKO-35 araC::mexCD [10, 19] | Minimum inhibitory concentration (MIC), Pore K-12 ([11]; Table 10, with pore) | Minimum inhibitory concentration, K-12 (WT)-Pore ([11]; Table 14A, porinated) | Minimum inhibitory concentration (MIC), Pore EKO-35 ([13]; Table 10, with pore, technical duplicate) | Minimum inhibitory concentration, EKO-35-Pore [13, 21] | Minimum inhibitory concentration, EKO-35 araC::acrB Pore [14, 21] | Minimum inhibitory concentration ([15]; EKO-35 araC::acrBD408A Pore, technical duplicate) | Minimum inhibitory concentration, EKO-35 araC::acrD Pore [16, 21] | Minimum inhibitory concentration, EKO-35 araC::acrEF Pore [17, 21] | Minimum inhibitory concentration ([18]; EKO-35 araC::emrAB Pore, technical duplicate)
1 fold: Fold change of MICs [1] | Fold change of MICs [2] | Fold change of MICs [3] | Fold change of MICs ([4]; EKO-35 araC::acrEF compared to EKO-35) | Fold change of MICs [5] | Fold change of MICs [6] | Fold change of MICs [7] | Fold change of MICs [8] | Fold change of MICs ([9]; EKO-35 araC::mdtEF compared to EKO-35) | Fold change of MICs [10] | Fold changes of MICs [13] | Fold changes of MICs [14] | Fold changes of MICs [15] | Fold changes of MICs [16] | Fold changes of MICs [17] | Fold changes of MICs [18]
1.25 µg/mL: Minimum inhibitory concentration (MIC), Pore ΔtolC ([12]; technical duplicate) | Minimum inhibitory concentration, ΔtolC-Pore [12, 21]
